# Reference: patent US9957236B2, “Selective inhibitors interfering with fibroblast growth factor receptor and FRS2 interaction for the prevention and treatment of cancer and other diseases” (LIMITED LIABILITY COMPANY “RUSSIAN PHARMACEUTICAL …, priority 2014, dated 2018)
# Experiments:
# FGFR2-Fc = biological target: T1, FGFR2-Fc (Homo sapiens, UniProt P21802); test: Enzyme linked FGF2 binding assay with FGFR2-Fc; conditions: concentrations of 1 to 1000 nM, FGF-2 + heparin
# T1 construct: consisted of human extracellular domain FGFR2α (Inc) and Fc-fragment of human IgG1
# T1 sequence (P21802 22-377 limits assumed): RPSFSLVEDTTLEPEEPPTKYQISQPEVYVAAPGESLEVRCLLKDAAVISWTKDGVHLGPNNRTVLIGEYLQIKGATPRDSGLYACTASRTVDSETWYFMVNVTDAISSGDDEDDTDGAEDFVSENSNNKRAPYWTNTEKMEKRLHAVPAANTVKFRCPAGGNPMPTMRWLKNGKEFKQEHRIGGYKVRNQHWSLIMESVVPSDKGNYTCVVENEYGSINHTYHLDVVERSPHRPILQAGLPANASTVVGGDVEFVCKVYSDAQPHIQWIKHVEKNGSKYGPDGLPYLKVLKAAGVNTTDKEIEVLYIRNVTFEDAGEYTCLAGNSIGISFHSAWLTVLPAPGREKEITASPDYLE
# Description: Non-radioactive enzyme linked FGF2 binding assay was performed in order to assess if RPT835 influences on binding of FGFR2 and ligand (FGF-2). Recombinant chimeric protein FGFR2-Fc, which consisted of human extracellular domain FGFR2α (Inc) and Fc-fragment of human IgG1 was used in the binding assay of FGF-2. FGFR2α contained all the 3 immunoglobulin-like domains and represented domain IIIc FGFR2 with high affinity to FGF-2. A 96-cavity plate tablet was covered with FGFR2-Fc protein, and then the following was added into the cavities:
# 3) inhibitor RPT835 in various concentrations+FGF-2+heparin
# 4) a part of the cavities remained without stimulators (FGF-2+heparin) and RPT835 (negative control).
# After incubation, enzyme-linked immunoassay was carried out using the corresponding antibodies and subsequent determination of OD650 (optic density with wavelength of 650 nm).
# [1] = tested on: p44/42(MAPK), Akt, mTOR, p70S6; test: Phosphorylation of intracellular kinases in KATO III cells; format: cell-based; conditions: FGF-2 and heparin
# Description: In order to access the effect of inhibitor RPT835, characterized in his invention by formula II, on phosphorylation of the listed kinases, stomach cancer cells KATO III, which express FGFR2, was used. FGF-2 in concentration 1 mg/ml and heparin 10 mg/ml was added to the cells for stimulation of FGFR. RPT835 was added in various concentrations. Part of the cells left without addition of the inhibitor, and a part of the cells—without addition of both the inhibitor, and stimulating agents (control groups).
# In order to assess the phosphorylation level, 2 standard methods were used: • Western-blotting using manual work. • Automatic capillary electrophoresis and immune-detection using automatic system Wes™ (ProteinSimple; SantaClara, Calif.).
# FGFR1 = biological target: T2, FGFR1 (Homo sapiens, UniProt P11362); test: FGFR1 phosphorylation in breast cancer cells MDA MB 134; format: cell-based; conditions: MDA MB 134 cells
# T2 construct: endogenous in cells; host or cells: HUVEC, Caki-1, KATO III
# T2 sequence (P11362 22-822): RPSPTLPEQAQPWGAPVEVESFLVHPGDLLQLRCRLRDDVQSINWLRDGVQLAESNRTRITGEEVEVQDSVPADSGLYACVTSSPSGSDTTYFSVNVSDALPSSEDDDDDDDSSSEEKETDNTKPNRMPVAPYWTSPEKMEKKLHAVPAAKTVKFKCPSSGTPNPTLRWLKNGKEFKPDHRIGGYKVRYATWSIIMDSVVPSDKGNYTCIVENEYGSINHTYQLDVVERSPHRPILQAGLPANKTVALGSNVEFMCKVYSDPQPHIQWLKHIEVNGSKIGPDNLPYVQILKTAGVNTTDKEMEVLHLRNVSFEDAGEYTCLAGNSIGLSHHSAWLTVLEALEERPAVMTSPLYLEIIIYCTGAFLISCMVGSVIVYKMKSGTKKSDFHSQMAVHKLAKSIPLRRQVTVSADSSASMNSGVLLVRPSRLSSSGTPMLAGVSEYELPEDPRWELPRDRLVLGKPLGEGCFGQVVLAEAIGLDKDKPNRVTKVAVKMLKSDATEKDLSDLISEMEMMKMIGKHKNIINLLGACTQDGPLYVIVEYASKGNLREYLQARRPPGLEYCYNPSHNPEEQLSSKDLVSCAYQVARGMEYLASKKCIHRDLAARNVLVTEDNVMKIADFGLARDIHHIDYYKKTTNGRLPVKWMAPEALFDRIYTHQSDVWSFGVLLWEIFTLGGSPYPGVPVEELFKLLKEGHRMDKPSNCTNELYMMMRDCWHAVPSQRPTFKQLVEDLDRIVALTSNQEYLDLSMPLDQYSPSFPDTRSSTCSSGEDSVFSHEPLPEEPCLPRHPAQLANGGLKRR
# Text: The purpose of this research was assessment of specific action of inhibitor RPT835 specified in this invention with formula II, on interaction of […] and FRS2 and assessment of influence on interaction of other types of FGFR and FRS2. For the experiment, 2 cell lines were selected: • stomach cancer KATO III, expressing FGFR2, and • breast cancer MDA MB 134, expressing FGFR1.
# The research procedure was the same as in the previous examples: the cells were cultivated in presence of RPT835 followed by stimulation with FGF-2 and heparin. The other part of the cells was cultivated in presence of RPT835. Phosphorylation of FGFR1 (in breast cancer cells) and FGFR2 (in stomach cancer cells), and also FRS2a (in the both cell lines) and some intracellular kinases (in breast cancer cells) was assessed using manual and automated Western blotting.
# T47D breast cancer cells = test: Crystal Violet proliferation assay, T47D; format: cell-based; conditions: hardly expressed FGFR2, bFGF 100 ng/ml, 7 days
# Text: This research used additional cell lines: SKOV3 (ovarian cancer, ATCC # HTB-77), HS578T (breast cancer, ATCC # HTB-126), T47D (breast cancer, ATCC #HTB-1336), modified line of non-small cells lung cancer A549, line of metastatic melanoma of skin Mel Kor (RF Patent No. 2287578), and additional study of antiangiogenic activity—cell line SVEC-4-10 (endothelial cells, ATCC #CRL-2181).
# The cells were cultivated in environment RPMI-1640 (PANECO) (SKOV3, HS578T, T47D, Mel-Kor) or DMEM (PANECO) (SVEC-4-10) containing 10% of embryonal serum cattle (FCS, HyClone), 2 mM glutamine (PANECO), antibiotics (100 IU/mL penicillin and […] streptomycin (all PANECO)) at 37° C. and 5% CO2. Cells at 70-80% monolayer were used for the experiments.
# The cells were planted in low density (30 t of cells/ml) in triplets on a 96-cavity plate in an environment containing 0.1% of FCS serum. […] Growth of cells was determined by the modified “Crystal Violet mitogenic method” for 7 days after the experiment start. […] The dye was dissolved in ethanol and measured on a spectrophotometer at 540-560 nm. The curve of cell proliferative activity inhibition was built by the dependence of the percent of the cell quantity (Y axis) on concentration of inhibitor RPT835 in the cavity of the plate (X axis). […]
# [2] = tested on: human ovarian cancer SKOV-3; test: Pathomorphosis of SKOV-3 ovarian tumor in nude mice; format: in vivo; conditions: SKOV-3 in nude mice
# Description: Immunodefficient mice (Nude, age of the mice as of the treatment start is 8 weeks; nursery “Pushchino”) were subcutaneously inoculated cells of FGFR2 of expressing line of human ovarian cancer SKOV-3. When the average tumor volume of 200 mm3 was achieved, the mice were randomized into the groups of control (standard chemotherapy with paclitaxel and caroplatin) and treatment (inhibitor RPT835). There were 10 mice in each group. Inhibitor RPT835 was assigned in a dose of 50 mg/kg, daily. The tumor volume was measured twice a week. When the tumor volume reached 2,000 mm3, the mice were subjected to euthanasia. Pathomorphosis of the tumor tissue was studied.
# Acute toxicity = format: in vivo; conditions: acute administration
# Text: Besides, acute toxicity of inhibitor RPT835 was studied in the following volume in a separate research: • Acute toxicity of the medicine was researched. […] The state of the animals after acute administration testifies of good tolerability of the medicine in doses exceeding the maximal therapeutic ones (about 4.3 mcg/kg) tens—hundreds of times.
structure (smiles),measurement,setting,value
"Cc1cc([N+](=O)[O-])c(NS(=O)(=O)c2cccc(C(=O)O)c2)cc1-c1cccnc1 [RPT835, 3-(N-(4-methyl-2-nitro-5-(pyridin-3-yl)phenyl)sulfamoyl)benzoic acid]",binding of FGF-2 and FGFR2-Fc,FGFR2-Fc,did not influence on binding of ligand with the receptor
same,"activity (phosphorylation) of p44/42(MAPK), Akt, mTOR, p70S6 compared to cells stimulated only with FGF-2",[1],did not change
same,phosphorylation of FGFR1,FGFR1,did not have influence
same,inhibition of proliferative activity,T47D breast cancer cells,did not block
same,part of the tumor represented by massive necroses,[2]; 50 mg/kg daily,over 75%
same,pathomorphosis of the tumor tissue,"[2]; RPT835 50 mg/kg daily, control standard chemotherapy with paclitaxel and caroplatin",Pronounced therapeutic pathomorphosis
same,toxicity class (Hodge; Sidorov),"Acute toxicity; 14 days observation, necropsy",IV class of low toxicity
same,LD50 at 14 days,"Acute toxicity; in vivo, read-out: Median lethal dose (LD50)",> 2000 mg/kg
